The test concerns the target HPK1 (Homo sapiens (Human), UniProt Q92918). The test can be described thus: HPK1 biochemical enzyme assay (microfluidic mobility shift assay). Particulars: 1.5 nM HPK1, ATP 1 mM final, 60 min at RT, Caliper EZ Reader; read-out: HPK1 1000UMATP caliper IC50. As for the experimental part: HPK1 biochemical enzyme assay: HPK1 enzyme inhibition was measured using a microfluidic mobility shift assay. […] Test compounds were titrated in ten point curves (top final assay concentration […]), and preincubated with enzyme/substrate mix for 30 min prior to initiation of the reaction by addition of ATP (1 mM final concentration) and substrate (1 μM final concentration; Carna Biosciences) diluted in assay buffer supplemented by MgCl2 (final assay concentration of 5 mM). Following 60 min incubation at RT, the reaction was terminated by addition of 60 µl/well termination buffer (Carna Biosciences) and signal determination using a Caliper EZ Reader (Perkin Elmer, UK). […] The compound numbers correspond to the compound numbers in Table 1.

A value given as a limit tells only on which side of the number the result lay.

Sequence of HPK1 (Q92918 whole entry): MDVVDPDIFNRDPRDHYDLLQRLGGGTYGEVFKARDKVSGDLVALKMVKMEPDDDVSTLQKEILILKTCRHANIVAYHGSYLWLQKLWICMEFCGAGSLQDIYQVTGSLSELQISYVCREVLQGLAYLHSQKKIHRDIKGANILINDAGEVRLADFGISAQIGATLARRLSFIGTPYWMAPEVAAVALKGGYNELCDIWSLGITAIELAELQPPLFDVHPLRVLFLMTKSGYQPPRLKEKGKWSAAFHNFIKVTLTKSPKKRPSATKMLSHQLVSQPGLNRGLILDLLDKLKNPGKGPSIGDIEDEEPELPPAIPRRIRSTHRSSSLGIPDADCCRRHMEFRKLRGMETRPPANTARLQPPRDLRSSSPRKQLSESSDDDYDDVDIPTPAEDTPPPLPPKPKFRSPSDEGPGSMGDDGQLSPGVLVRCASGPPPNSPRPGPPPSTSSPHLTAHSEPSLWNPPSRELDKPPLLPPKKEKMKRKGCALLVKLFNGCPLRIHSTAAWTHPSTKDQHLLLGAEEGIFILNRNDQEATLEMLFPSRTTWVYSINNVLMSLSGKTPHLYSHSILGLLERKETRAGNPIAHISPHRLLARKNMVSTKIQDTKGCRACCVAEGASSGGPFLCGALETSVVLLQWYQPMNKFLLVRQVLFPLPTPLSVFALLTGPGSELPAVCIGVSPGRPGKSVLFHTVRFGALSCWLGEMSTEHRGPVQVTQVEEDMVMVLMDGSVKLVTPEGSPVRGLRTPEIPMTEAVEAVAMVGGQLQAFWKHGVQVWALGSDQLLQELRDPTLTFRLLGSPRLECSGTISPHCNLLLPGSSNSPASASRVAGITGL

As for “7-((5-(4-hydroxypiperidin-1-yl)pyridin-2-yl)amino)-4-(imidazo[1,2-a]pyrazin-5-yl)-2,3-dihydro-1H-pyrrolo[3,4-c]pyridin-1-one [I-376]”, the IC50 was in the range of 100 to 1000 nM.
Turning to “7-((5-((3R,4R)-4-fluoro-3-hydroxypiperidin-1-yl)pyridin-2-yl)amino)-4-(imidazo[1,2-a]pyrazin-3-yl)isoindolin-1-one [I-434]”, the IC50 was less than 100 nM.
Turning to `CN(C)Cc1nc(Nc2cnc(-c3cccc4c3ccn4C)c3c2C(=O)NC3)ccc1[C@@H]1CCOC1` (single isomer, unassigned) [I-540], the IC50 was less than 100 nM.
In the case of `CC1NC(=O)c2c(Nc3ccc(N4CCC(O)CC4)cn3)ccc(-c3ccnc4c3ccn4C)c21` (stereo in doubt) [I-286, (S)-7-((5-(4-hydroxypiperidin-1-yl)pyridin-2-yl)amino)-3-methyl-4-(1-methyl-1H-pyrrolo[2,3-b]pyridin-4-yl)isoindolin-1-one], the IC50 is greater than 1000 nM.
With `CC1NC(=O)c2c(Nc3ccc(N4CCC(O)CC4)cn3)ccc(-c3ccnc4c3ccn4C)c21` (stereo in doubt) [I-287, (R)-7-((5-(4-hydroxypiperidin-1-yl)pyridin-2-yl)amino)-3-methyl-4-(1-methyl-1H-pyrrolo[2,3-b]pyridin-4-yl)isoindolin-1-one], the IC50 was less than 100 nM.
Under `Cc1ccn2c(-c3ccc(Nc4ccc([C@H]5CCOC5)c(CN(C)C)n4)c4c3CNC4=O)cnc2n1` (stereo in doubt) [I-561, 7-[[6-[(dimethylamino)-methyl]-5-tetralndrofliran-3-yl-2-pyridyl]amino] 4-(7-methylimidazo [1,2-a]pyrimidin-3-yl)isoindolin-1-one] stands less than 100 nM.
For `Cc1cccn2c(-c3ccc(Nc4ccc(C5CCOC5)c(CN(C)C)n4)c4c3CNC4=O)cnc12` (stereo in doubt) [I-695, (S)-7-((6-((dimethylamino)-methyl)-5-(tetrahydrofuran-3-yl)pyridin-2-yl)amino)-4-(8-methylimidazo [1,2-a]pyridin-3-yl)isoindolin-1-one], the IC50 is less than 100 nM.
For `Cc1cccn2c(-c3ccc(Nc4ccc(C5CCOC5)c(CN(C)C)n4)c4c3CNC4=O)cnc12` (stereo in doubt) [I-696, (R)-7-((6-((dimethylamino)-methyl)-5-(tetrahydrofuran-3-yl)pyridin-2-yl)amino)-4-(8-methylimidazo [1,2-a]pyridin-3-yl)isoindolin-1-one], the IC50 was less than 100 nM.
Under `COCC1CN(c2ccc(Nc3ccc(-c4cnc5cc(F)ccn45)c4c3C(=O)NC4)nc2CN(C)C)CCO1` (stereo in doubt) [I-711, (R)-7-((6-((dimethylamino)-methyl)-5-(2-(methoxymeth-yl)morpholino)pyridin-2-yl)amino)-4-(7-fluoroimidazo [1,2-a]pyridin-3-yl)isoindolin-1-one] stands less than 100 nM.
Consider `O=C1NCc2c(-c3cnc4ccccn34)ccc(Nc3ccc(N4CCC(O)CC4)cn3)c21` [I-125, 7-[[5-(4-hydroxy-1-piperidyl)-2-pyridyl]amino]-4-imidazo[1,2-a]pyridin-3-yl-isoindolin-1-one], for which the IC50 was less than 100 nM.
Take `O=C1NCc2c(-c3cnc4cc(F)ccn34)ccc(Nc3ccc(N4CCC(O)CC4)cn3)c21` [I-138]: the half-inhibitory concentration (IC50) is less than 100 nM.
For the molecule `O=C1NCc2c(-c3cnc4cc(CO)ccn34)ccc(Nc3ccc(N4CCC(O)CC4)cn3)c21` [I-177, 4-[7-(hydroxymeth-yl)imidazo[1,2-a]pyridin-3-yl]-7-[[5-(4-hydroxy-1-piperidyl)-2-pyripyl]amino] isoindolin-1-one], the IC50 is less than 100 nM.
As for `Cc1cnc2c(-c3ccc(Nc4ccc(N5CCC(O)CC5)cn4)c4c3CNC4=O)cnn2c1` [I-186, 7-[[5-(4-hydroxy-1-piperidyl)-2-pyridyl)amino]-4-(6-methylpyra-zolo[1,5-a]pyrimidin-3-yl)isoindolin-1-one], the IC50 is less than 100 nM.
Consider `O=C1NCc2c(-c3cnc4ccccn34)ncc(Nc3ccc(N4CCOCC4)cn3)c21` [I-198, 4-imidazo[1,2-a]pyridin-3-yl-7-[(5-morpholino-2-pyridyl)-amino]-2,3-dihydropyrrolo [3,4-c]pyridin-1-one], for which the IC50 was in the range of 100 to 1000 nM.
`Cn1ccc2c(-c3ncc(Nc4ccc(N5CCNCC5)cn4)c4c3CNC4=O)cccc21` [I-266, 4-(1-methyl-1H-indol-4-yl)-7-((5-(piperazin-1-yl)pyridin-2-yl)amino)-2,3-dihydro-1H-pyrrolo[3,4-c]pyridin-1-one]: the IC50 was less than 100 nM.
With `O=C1NCc2c(-c3cnc4cc(F)ccn34)ccc(Nc3ccc(C4CCOCC4)cn3)c21` [I-341], the IC50 is less than 100 nM.
Under `O=C1NCc2c(-c3cnc4cc(F)ccn34)ccc(Nc3ccn(C4CCOCC4)n3)c21` [I-382, 4-(7-fluoroimidazo [1,2-a]pyridin-3-yl)-7-((1-(tetrahydro-2H-pyran-4-yl)-1H-pyrazol-3-yl)amino)isoin-dolin-1-one] stands greater than 1000 nM.
The value for `O=C1NCc2c(-c3ncc4cnccn34)ccc(Nc3ccc(N4CCC(O)CC4)cn3)c21` [I-398, 7-((5-(4-hydroxypipendin-1-yl)pyridin-2-yl)amino)-4-(imidazo[1,5-a]pyrazin-3-yl)isoindolin-1-one] was 100 to 1000 nM; that for `Cc1ccc2c(-c3ccc(Nc4ccc(CN5CCOCC5)cn4)c4c3CNC4=O)cnn2c1` [I-469, 4-(6-methylpyrazolo[1,5-a]pyridin-3-yl)-7-[[5-(morpholino-methyl)-2-pyridyl]amino] isoindolin-1-one] was less than 100 nM; that for `Cc1ccn2c(-c3ncc(Nc4cccc(N5CC[C@@H]6CNC[C@@H]65)n4)c4c3CNC4=O)cnc2c1F` [I-480, 7-[[6-[(3aR,6aR)-3.3a,4,5,6.6a-hexahydro-2H-pyrrolo[2,3-c]pyrrol-1-yl]-2-pyridyl]amino]-4-(8-fluoro-7-methyl-imidazo[1,2-a]pyridin-3-yl)-2,3-dihydropyrrolo [3,4-c]pyridin-1-one] was 100 to 1000 nM.
In the case of `Cc1ccn2c(-c3ncc(Nc4cccc(N5CCC6CNCC65)n4)c4c3CNC4=O)cnc2c1F` (centres unmarked) [I-481], the IC50 is less than 100 nM.
Take `CC(C)(O)[C@H]1CN(c2ccc(Nc3ccc(-c4cnc5cnccn45)c4c3C(=O)NC4)nc2)CCO1` [I-486, 7-[[5-[(2R)-2-(1-hydroxy-1-methylethyl)morpholin-4-yl]-2-pyridyl]amino]-4-imidazo[1,2-a]pyrazin-3-yl-isoindolin-1-one]: the IC50 is less than 100 nM.
For the molecule `O=C1NCc2c(-c3cnc4cc(F)ccn34)ccc(Nc3ccc(N4CCC(N5CCOCC5)CC4)cn3)c21` [I-488, 4-(7-fluoroimidazo [1,2-a]pyridin-3-yl)-7-[[5-(4-morpholino-1-piperidyl)-2-pyridyl]amino] isoindolin-1-one], the 50% inhibitory concentration (IC50) was less than 100 nM.
The value for `Cc1cccn2c(-c3ncc(Nc4ccc(C5CCOC5)c(CN(C)C)n4)c4c3CNC4=O)cnc12` (centres unmarked) [I-539] was less than 100 nM; that for `C[C@@H]1CN(c2ccc(Nc3ccc(-c4cnc5cc(F)ccn45)c4c3C(=O)NC4)nc2CN(C)C)CCO1` [I-541, 7-[[6-[(dimethylamino)-methyl]-5-[(2R)-2-methylmorpho-lin-4-yl]-2-pyridyl]amino] 4-(7-fluoroimidazo [1,2-a]pyridin-3-yl)isoindolin-1-one] was less than 100 nM; that for `Cn1ccc2c(-c3ncc(Nc4ccc(C5CCOC5)c(CN5CCCC5)n4)c4c3CNC4=O)ccnc21` (centres unmarked) [I-552, 4-(1-methylpyrrolo [2,3-b]pyridin-4-yl)-7-[[6-(pyrrolidin-1-ylmethyl)-5-tetralndrofuran-3-yl-2-pyridyl]amino]-2,3-dihydropyrrolo [3,4-c]pyridin-1-one] was less than 100 nM.
For the molecule `O=C1NCc2c(-c3cnc4cc(F)ccn34)ccc(Nc3ccc(N4CCO[C@@H]5CNC[C@@H]54)cn3)c21` [I-690], the IC50 was less than 100 nM.
Regarding `O=C1NCc2c(-c3cnc4cc(F)ccn34)ccc(Nc3ccc(N4CCO[C@H]5CNC[C@H]54)cn3)c21` [I-694, 4-(7-fluoroimidazo [1,2-a]pyridin-3-yl)-7-((5-((4aR,7aS)-hexahydro-pyrrolo[3,4-b][1.4]oxazin-4(4aH)-yl)pyridin-2-yl)amino)isoin-dolin-1-one], the IC50 is less than 100 nM.
Regarding `CN1CCN(c2nc(Nc3ccc(-c4cnc5cc(F)ccn45)c4c3C(=O)NC4)ccc2[C@H]2CCOC2)CC1` [I-801, (R)-4-(7-fluoroimidazo [1,2-a]pyridin-3-yl)-7-((6-(4-methylpiperazin-1-yl)-5-(tetrahydrofuran-3-yl)pyridin-2-yl)amino)isoin-dolin-1-one], the half-inhibitory concentration (IC50) is less than 100 nM.
Regarding `CN1CCN(c2nc(Nc3ccc(-c4cnc5cc(F)ccn45)c4c3C(=O)NC4)ccc2[C@@H]2CCOC2)CC1` [I-802, (S)-4-(7-fluoroimidazo [1,2-a]pyridin-3-yl)-7-((6-(4-methylpiperazin-1-yl)-5-(tetrahydrofuran-3-yl)pyridin-2-yl)amino)isoin-dolin-1-one], the IC50 was less than 100 nM.
Regarding `CN(C)Cc1nc(Nc2cnc(-c3ccnc4c3ccn4C)c3c2C(=O)NC3)ccc1O[C@@H]1CCOC1` [I-805, (R)-7-((6-((dimethylamino)-methyl)-5-((tetrahydrofur-an-3-yl)oxy)pyridin-2-yl)amino)-4-(1-methyl-1H-pyrrolo[2,3-b]pyridin-4-yl)-2,3-dihydro-1H-pyrrolo[3,4-c]pyridin-1-one], the IC50 is less than 100 nM.
Turning to `CN1CC(Oc2nc(Nc3ccc(-c4cnc5cc(F)ccn45)c4c3C(=O)NC4)ccc2[C@@H]2CCOC2)C1` [I-816, (S)-4-(7-fluoroimidazo [1,2-a]pyridin-3-yl)-7-((6-((1-methylazetidin-3-yl]oxy)-5-(THF-3-yl)pyridin-2-yl)amino)isoin-dolin-1-one], the IC50 was less than 100 nM.
